{
  "source": "patent US20120015063A1",
  "about": "“COMPOSITION FOR TREATMENT AND/OR PREVENTION OF SKIN DISORDER” (priority 2009, published 2012)",
  "key": {"hyaluronic acid (HA)": {"test_system": "hyaluronic acid (HA)", "assay": "Identification of GAG in skin extract by cellulose acetate membrane electrophoresis (Example 2)", "type": "in vivo, Hos: HR-1 hairless mice", "conditions": "0.24% glucosamine-mixed diet, UV-irradiated", "experimental": "After the grouping, UV-irradiated groups were irradiated with UV light three times a week. Specifically, for the first week, 1 minute of UV irradiation was carried out. For the second week, 2 minutes of UV irradiation, and for the third and fourth week, 3 minutes of UV irradiation were conducted. From the fourth week to the time of dissection completed, 4 minutes of UV irradiation were carried out. The total irradiation amount was 1.35 J. In addition, moisture content and an amount of food ingested were measured twice a week, and body weight was measured once a week.\nA UVB lump GL20SE (SANKYO DENKI) was used to carry out UV irradiation having irradiation intensity of 0.3 mW/cm^2. […] Irradiation intensity was adjusted by using a digital ultraviolet light intensity meter, UV-340 (AS ONE Corporation). During irradiation, mice were left for one and a half hour in an individualized cage having a size of 9 cm×5 cm×4 cm. […]"}, "[1]": {"test_system": "hairless mice of a photoaging model", "assay": "Histological analysis of HE-stained dorsal skin (epidermis thickness, edema), mixed-diet administration (Example 2)", "type": "in vivo, Hos: HR-1 hairless mice", "conditions": "0.24% glucosamine-mixed diet"}, "type I collagen": {"test_system": "type I collagen", "assay": "Quantification of type I collagen in skin extract by SDS-PAGE and Western blotting (Example 2)", "type": "in vivo, Hos: HR-1 hairless mice", "conditions": "0.24% glucosamine-mixed diet, UV-irradiated", "experimental": "After the grouping, UV-irradiated groups were irradiated with UV light three times a week. Specifically, for the first week, 1 minute of UV irradiation was carried out. For the second week, 2 minutes of UV irradiation, and for the third and fourth week, 3 minutes of UV irradiation were conducted. From the fourth week to the time of dissection completed, 4 minutes of UV irradiation were carried out.\nA UVB lump GL20SE (SANKYO DENKI) was used to carry out UV irradiation having irradiation intensity of 0.3 mW/cm^2. […] Irradiation intensity was adjusted by using a digital ultraviolet light intensity meter, UV-340 (AS ONE Corporation). During irradiation, mice were left for one and a half hour in an individualized cage having a size of 9 cm×5 cm×4 cm. In order to decrease a difference in irradiation intensity for respective cages, the mice were irradiated while subjected to a rotation in every occasion.\nA frozen and crushed skin was degreased using methanol for 24 hours. Then, an appropriate amount of PBS (−) containing protease inhibitors was added, and the sample was stirred with a rotator and washed twice to remove serum components, etc. […]"}, "carbonyl proteins": {"test_system": "carbonyl proteins", "assay": "Quantification of carbonyl proteins in skin tissue by Oxyblot Western blotting (Example 2)", "type": "in vivo, Hos: HR-1 hairless mice", "conditions": "0.24% glucosamine-mixed diet, UV-irradiated", "procedure": "After one week of acclimatization, 54 six-week-old male Hos: HR-1 hairless mice were used in experiments. The below-described diet was used, and the mice were reared under conditions at 25° C. while keeping a free access to food and water. In addition, during measurements of the skin moisture content, a humidity meter was used to determine humidity in an animal room. All experiments were conducted under approval (No. 19-76) of Animal Care and Use Committee of Tokyo University of Agriculture and Technology.\nPreparation of an administration diet was ordered to Oriental Yeast Co., Ltd. First, 0.072% mangosteen pericarp extract-mixed diet and 0.15% mangosteen pericarp extract-mixed diet were used. In addition, 0.24% glucosamine-mixed diet was used as a positive control, and CRF-1 diet was used as a negative control. A daily amount of mangosteen pericarp extract ingested was set to 120 mg/kg body weight for the 0.072% group, and set to 250 mg/kg body weight for the 0.15% group as a rough guideline.\nA study schedule is illustrated in FIG. 1. A study period was set to 8 weeks, and the study was carried out from October to December in 2007. […] The total irradiation amount was 1.35 J. In addition, moisture content and an amount of food ingested were measured twice a week, and body weight was measured once a week. […]"}, "[2]": {"test_system": "hairless mice of a photoaging model", "assay": "Skin moisture content by CORNEOMETER CM825, mixed-diet administration (Example 2)", "type": "in vivo, Hos: HR-1 hairless mice", "conditions": "0.24% glucosamine-mixed diet"}, "[3]": {"test_system": "hairless mice, UVB irradiation", "assay": "Skin moisture content by CORNEOMETER CM 825, oral forced administration (Example 3)", "type": "in vivo", "conditions": "20 mg/ml collagen solution, 0.1 ml/10 g body weight orally daily, UV-irradiated (collagen (+) group)", "procedure": "Skin moisture content was measured using CORNEOMETER® CM825 (manufactured by COURAGE+KHAZAKA electronic GMBH) twice a week, the measurement being carried out by contacting a probe onto a lumbar region of a mouse prior to UVB irradiation. The measurements were conducted five times, and the average of them was designated as a measured value.\nAn administration sample employed a mangosteen pericarp formulation. Specifically, a formulation having a ratio of a mangosteen pericarp extract:gum arabic=1:1 was used. One having only gum arabic was used as a control, and collagen was used as a positive control. Solutions having respective concentrations were prepared. A solution having a concentration of 0.1 ml/10 g body weight was orally administered every day during the rearing period by using a stomach tube. Two kinds (a high concentration (24 mg/ml) and a low concentration (12 mg/ml)) of a solution containing a mangosteen pericarp extract were prepared. Then, 24 mg/ml of a gum arabic solution and 20 mg/ml of a collagen solution were prepared.\nAfter 1 week of acclimatization, grouping was conducted based on skin moisture content and viscoelasticity. […]"}},
  "data": [
    {"compound": "N[C@H]1C(O)O[C@H](CO)[C@@H](O)[C@@H]1O", "note": "(some centres unmarked) [GlcN, glucosamine]", "values": [
      {"measurement": "band intensity of HA (control (−) set to 1)", "setting": "hyaluronic acid (HA)", "value": 0.58},
      {"measurement": "thickness of the epidermis compared to control (−)", "setting": "[1]; UV-irradiated", "value": "significant increase in the thickness of the epidermis"},
      {"measurement": "thickness of the epidermis", "setting": "[1]; UV-irradiated (GlcN (+) group)", "value": "39.46±9.56", "unit": "μm"},
      {"measurement": "type I collagen band intensity (control (−) set to 1; average of α-chain and β-chain)", "setting": "type I collagen", "value": 1.25},
      {"measurement": "carbonyl protein band intensity (control (−) set to 1)", "setting": "carbonyl proteins", "value": 1.63},
      {"measurement": "skin moisture content at week 8", "setting": "[2]; UV-irradiated (GlcN (+) group)", "value": "62.96±2.78"},
      {"measurement": "skin moisture content compared to control (+)", "setting": "[2]; UV-irradiated, weeks 7 and 8", "value": "significant increase"}
    ]},
    {"compound": "collagen", "values": [
      {"measurement": "skin moisture content at week 7", "setting": "[3]", "value": "68.54±2.91"}
    ]}
  ]
}
